Literature values in US5401490A, “Markers of tissue hypoxia” (priority 1989, dated 1995).

Key:
[1] = system: EMT-6 cells; details: 50 μM comparison, previously determined value; cited from earlier work
[2] = cited from earlier work
[3] = system: hypoxic cell; details: in vitro; cited from earlier work
[4] = system: hypoxic cell; details: in vitro; cited from earlier work; remark: listed apart in the source
[5] = system: EMT-6 murine tumor cells; details: hypoxic in vitro; cited from earlier work
[6] = system: V-79 hamster cells; details: hypoxic in vitro; cited from earlier work
[7] = system: EMT-6 tumors; details: BALB/C mice; cited from earlier work

SMILES	sensitizer enhancement ratio (SER) [1]	metabolic deiodination in vivo [2]	hypoxic cell toxicity compared with MISO [3]	rates of binding compared with MISO [4]	binding to the macromolecular fraction [5]	binding to the macromolecular fraction [6]	binding to EMT-6 tumors in vivo [7]
O=[N+]([O-])c1nccn1C1OC(CI)C(O)C1O (centres unmarked) [IAZR, (1-5'-iodo-5'deoxyribofuranosyl)-2-nitroimidazole]	1.6	subject to metabolic deiodination	greater hypoxic cell toxicity	rates of binding than MISO			
COCC(O)Cn1ccnc1[N+](=O)[O-] (centres unmarked) [MISO, misonidazole]	1.2				selectively bound to the macromolecular fraction	selectively bound to the macromolecular fraction	selectively bound
